The source of these data is US9586951B2 (FUJIFILM Corporation, priority 2013, dated 2017).

Assay [1] addresses T1, ATM (Homo sapiens, UniProt Q13315).
T1 construct: detecting phosphorylation of Chk2 in a human non-small cell lung cancer cell line NCI-H460 (ATCC company); host or cells: NCI-H460 human non-small cell lung cancer cells
Kind of assay: ATM inhibition test (phosphorylation of Chk2 generated by ionizing radiation, AlphaScreen SureFire). The following applies: phosphorylated Chk2 in NCI-H460 cells, ionizing radiation 8Gy, 1 hour after test compound treatment; read-out: ATM inhibitory activity. It is filed as cell-based. A digest of the protocol: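 Human NCI-H460 lung cancer cells were treated with compound for 1 h, then irradiated at 8Gy and incubated 1 h at 37° C. Phospho-Chk2 was quantified by AlphaScreen SureFire; inhibition % was normalised between irradiated untreated and non-irradiated untreated wells.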
(In general: Bead proximity is the source of the signal in Alpha formats.)

In assay [2] the test system is human non-small cell lung cancer cell line NCI-H460. Kind of assay: Cell proliferation inhibition test by sensitivity-enhancing to ionizing radiation (Cell Titer Glo). The class given is cell-based. The following applies: Homo sapiens, NCI-H460, 120 h, concentration in which SER became 2; NCI-H460 cells, ionizing radiation 2 Gy, cultured 120 hour. An outline of the steps: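 Cells seeded at 2×10^3 cells/mL in RPMI-1640 with 10% FBS; after 24 h, compound added (0.1% DMSO), and 30 min later half the plates irradiated at 2 Gy. After 120 hour at 37° C, viability by Cell Titer Glo luminescence; SER2 is the concentration giving SER of 2 by sigmoidal fit.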
Background: Cellular ATP, detected with luciferase, serves as a proxy for viable cell number.

T1 sequence (Q13315 whole entry): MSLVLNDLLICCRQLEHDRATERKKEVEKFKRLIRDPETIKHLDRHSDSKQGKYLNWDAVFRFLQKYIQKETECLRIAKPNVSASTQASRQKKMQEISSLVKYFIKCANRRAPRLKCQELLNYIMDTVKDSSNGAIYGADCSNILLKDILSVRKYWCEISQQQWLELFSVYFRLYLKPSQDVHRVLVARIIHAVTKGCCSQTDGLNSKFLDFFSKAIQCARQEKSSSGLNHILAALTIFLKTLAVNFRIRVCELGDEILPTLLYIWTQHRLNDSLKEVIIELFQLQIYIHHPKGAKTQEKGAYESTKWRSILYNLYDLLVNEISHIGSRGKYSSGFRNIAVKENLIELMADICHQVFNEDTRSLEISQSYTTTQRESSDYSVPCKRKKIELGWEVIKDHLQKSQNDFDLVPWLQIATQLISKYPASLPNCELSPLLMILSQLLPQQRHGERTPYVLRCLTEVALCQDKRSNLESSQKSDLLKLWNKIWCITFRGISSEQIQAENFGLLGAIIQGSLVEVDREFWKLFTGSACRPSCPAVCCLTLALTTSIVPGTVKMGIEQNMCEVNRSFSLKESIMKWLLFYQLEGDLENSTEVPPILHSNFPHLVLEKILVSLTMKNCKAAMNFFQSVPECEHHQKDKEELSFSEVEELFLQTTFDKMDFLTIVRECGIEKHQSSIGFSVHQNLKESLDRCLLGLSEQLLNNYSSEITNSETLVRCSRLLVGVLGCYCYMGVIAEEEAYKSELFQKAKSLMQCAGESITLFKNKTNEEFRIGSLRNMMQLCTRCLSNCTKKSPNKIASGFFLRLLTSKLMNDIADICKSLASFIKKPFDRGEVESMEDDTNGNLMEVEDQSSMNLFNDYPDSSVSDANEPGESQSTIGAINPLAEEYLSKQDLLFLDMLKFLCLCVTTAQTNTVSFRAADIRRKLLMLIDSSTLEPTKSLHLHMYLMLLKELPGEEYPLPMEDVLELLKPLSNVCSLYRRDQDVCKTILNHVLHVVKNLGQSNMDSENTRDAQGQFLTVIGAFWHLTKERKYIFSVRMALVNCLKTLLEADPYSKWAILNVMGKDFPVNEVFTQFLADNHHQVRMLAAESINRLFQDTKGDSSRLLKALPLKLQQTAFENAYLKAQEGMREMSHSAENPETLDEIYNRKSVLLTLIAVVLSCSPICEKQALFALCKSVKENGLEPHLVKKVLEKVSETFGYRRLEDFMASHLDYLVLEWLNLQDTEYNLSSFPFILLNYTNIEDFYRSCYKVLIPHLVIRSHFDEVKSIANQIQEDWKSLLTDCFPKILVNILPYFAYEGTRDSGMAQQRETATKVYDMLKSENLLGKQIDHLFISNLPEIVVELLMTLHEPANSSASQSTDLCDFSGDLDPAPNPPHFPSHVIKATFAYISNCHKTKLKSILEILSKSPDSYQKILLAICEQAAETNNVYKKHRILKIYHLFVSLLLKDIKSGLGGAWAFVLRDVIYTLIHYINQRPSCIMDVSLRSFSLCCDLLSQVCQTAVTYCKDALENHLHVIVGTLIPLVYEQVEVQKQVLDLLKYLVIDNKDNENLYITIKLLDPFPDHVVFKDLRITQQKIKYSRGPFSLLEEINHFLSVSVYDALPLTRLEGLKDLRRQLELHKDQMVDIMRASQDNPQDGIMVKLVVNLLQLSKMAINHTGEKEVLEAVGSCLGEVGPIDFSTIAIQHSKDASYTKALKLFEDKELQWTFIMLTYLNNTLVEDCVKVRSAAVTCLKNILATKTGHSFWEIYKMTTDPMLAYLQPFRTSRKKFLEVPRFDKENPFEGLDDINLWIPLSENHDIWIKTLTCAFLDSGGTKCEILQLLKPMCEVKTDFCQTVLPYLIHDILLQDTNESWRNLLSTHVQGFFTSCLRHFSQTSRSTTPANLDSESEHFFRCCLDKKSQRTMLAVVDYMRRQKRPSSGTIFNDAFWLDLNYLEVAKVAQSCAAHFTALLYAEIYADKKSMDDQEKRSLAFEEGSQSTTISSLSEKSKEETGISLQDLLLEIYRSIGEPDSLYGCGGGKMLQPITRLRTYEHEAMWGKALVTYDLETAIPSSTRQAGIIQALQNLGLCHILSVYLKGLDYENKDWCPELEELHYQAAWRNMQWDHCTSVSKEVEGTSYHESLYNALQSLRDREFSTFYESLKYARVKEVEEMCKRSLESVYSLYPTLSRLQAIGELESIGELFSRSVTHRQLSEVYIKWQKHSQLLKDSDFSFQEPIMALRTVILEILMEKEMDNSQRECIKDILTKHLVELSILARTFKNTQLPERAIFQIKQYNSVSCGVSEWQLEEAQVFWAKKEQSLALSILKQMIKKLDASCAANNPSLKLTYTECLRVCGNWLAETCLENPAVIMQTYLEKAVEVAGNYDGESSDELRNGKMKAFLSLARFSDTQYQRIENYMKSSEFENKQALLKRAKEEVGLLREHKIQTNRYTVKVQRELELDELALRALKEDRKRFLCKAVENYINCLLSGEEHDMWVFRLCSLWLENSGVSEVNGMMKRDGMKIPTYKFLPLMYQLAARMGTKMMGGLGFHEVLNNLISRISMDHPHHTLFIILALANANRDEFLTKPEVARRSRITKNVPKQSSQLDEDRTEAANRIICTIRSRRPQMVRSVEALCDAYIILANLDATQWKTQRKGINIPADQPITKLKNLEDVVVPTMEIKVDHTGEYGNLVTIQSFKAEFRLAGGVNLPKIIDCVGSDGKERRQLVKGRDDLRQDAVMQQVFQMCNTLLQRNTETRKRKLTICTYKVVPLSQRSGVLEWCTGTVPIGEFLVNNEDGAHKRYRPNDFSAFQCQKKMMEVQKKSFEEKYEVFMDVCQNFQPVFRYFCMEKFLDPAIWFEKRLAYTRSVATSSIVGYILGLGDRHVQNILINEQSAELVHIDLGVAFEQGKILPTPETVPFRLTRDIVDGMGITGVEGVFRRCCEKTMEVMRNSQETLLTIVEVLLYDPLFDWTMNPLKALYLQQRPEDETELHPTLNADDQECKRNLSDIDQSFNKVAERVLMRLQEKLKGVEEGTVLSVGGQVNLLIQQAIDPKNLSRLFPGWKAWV

In the case of `COCCOCC(Nc1ccc2c(c1)Sc1cccc(-c3cc(N4CCOCC4)cc(=O)[nH]3)c1S2)c1ccc(C)cn1` (stereo not drawn) [Example 1-12-102, 6-(7-((2-(2-Methoxyethoxy)-1-(5-methylpyridin-2-yl)ethyl)amino)thianthren-1-yl)-4-morpholino pyridin-2(1H)-one], the IC50 in assay [1] is under 100 nM. Also, in assay [2], the SER2 (concentration at which the radiation sensitivity-enhancement ratio reaches 2) fell in the range of 100 to 500 nM.

With `COC(=O)C(Nc1ccc2c(c1)Sc1cccc(-c3cc(N4CCOCC4)cc(=O)[nH]3)c1S2)c1cccc(C)n1` (stereo not drawn) [Example 1-12-107, Methyl 2-(6-methylpyridin 2-yl)-2-((6-(4-morpholino-6-oxo-1,6-dihydropyridin-2 yl)thianthren-2-yl)amino) acetate], the IC50 in assay [1] is under 100 nM. Moreover, the SER2 (concentration at which the radiation sensitivity-enhancement ratio reaches 2) in assay [2] was 100 to 500 nM.

Take `COc1ccnc(C(C)Nc2ccc3c(c2)Cc2cccc(-c4cc(N5CCOCC5)cc(=O)[nH]4)c2O3)c1` (single isomer, unassigned) [Example 2-14-86-2, 6-(7-((1-(4-methoxypyridin-2-yl)ethyl)amino)-9H-xanthen-4-yl)-4-morpholinopyridin-2(1H)-one]: the IC50 in assay [1] was under 100 nM. The SER2 (concentration at which the radiation sensitivity-enhancement ratio reaches 2) in assay [2] lay within 100 to 500 nM.

Turning to `COc1cc(CNc2ccc3c(c2)Sc2cccc(-c4cc(N5CCOCC5)cc(=O)[nH]4)c2S3)ccn1` [Example 1-44-4, 6-(7-(((2-Methoxypyridin-4-yl)methyl)amino)thianthren-1-yl)-4-morpholino pyridin-2 (1H)-one], in assay [1], the IC50 is under 100 nM. In addition, the SER2 (concentration at which the radiation sensitivity-enhancement ratio reaches 2) in assay [2] lay in the range of 500 to 2000 nM.

`Cc1ccc(C(C)Nc2ccc3c(c2)Sc2cccc(-c4cc(N5CCOCC5)cc(=O)[nH]4)c2S3)nc1` (single isomer, unassigned) [Example 1-12-143-1, 6-(7-((1-(5-methylpyridin-2-yl)ethyl)amino)thianthren-1-yl)-4-morpholinopyridin-2(1H)-one]: the IC50 in assay [1] was under 100 nM. Also, the SER2 (concentration at which the radiation sensitivity-enhancement ratio reaches 2) in assay [2] was under 100 nM.

Regarding `O=c1cc(N2CCOCC2)cc(-c2cccc3c2Oc2ccc(NCc4cc(Cl)ccn4)cc2S3)[nH]1` [Example 4-4-2, 6-(8-(((4-Chloropyridin-2-yl)methyl)amino)phenoxathiin-4-yl)-4-morpholino pyridin-2(1H)-one], in assay [1], the IC50 was under 100 nM. Further, the SER2 (concentration at which the radiation sensitivity-enhancement ratio reaches 2) in assay [2] lay within 100 to 500 nM.

Regarding `Cc1ccnc(C(CO)Nc2ccc3c(c2)Sc2cccc(-c4cc(N5CCOCC5)cc(=O)[nH]4)c2S3)c1` (single isomer, unassigned) [Example 1-12-138-2, 6-(7-((2-hydroxy-1-(4-methylpyridin-2-yl)ethyl)amino)thianthren-1-yl)-4-morpholinopyridin-2(1H)-one], the IC50 in assay [1] was under 100 nM. In addition, the SER2 (concentration at which the radiation sensitivity-enhancement ratio reaches 2) in assay [2] was under 100 nM.

Turning to `Cc1cnc(C(C)Nc2ccc3c(c2)Cc2cccc(-c4cc(N5CCOCC5)cc(=O)[nH]4)c2O3)nc1` (stereo not drawn) [Example 2-14-80, 6-(7-((1-(5-Methylpyrimidin-2-yl)ethyl)amino)-9H-xanthen-4-yl)-4-morpholino pyridin-2 (1H)-one], the IC50 in assay [1] is under 100 nM. In addition, the SER2 (concentration at which the radiation sensitivity-enhancement ratio reaches 2) in assay [2] was in the range of 100 to 500 nM.

In the case of `COc1cncc(C(C)Nc2ccc3c(c2)Sc2cccc(-c4cc(N5CCOCC5)cc(=O)[nH]4)c2S3)c1` (single isomer, unassigned) [Example 1-12-145-1, 6-(7-((1-(5-methoxypyridin-3-yl)ethyl)amino)thianthren-1-yl)-4-morpholinopyridin-2(1H)-one], the IC50 in assay [1] is under 100 nM. In addition, the SER2 (concentration at which the radiation sensitivity-enhancement ratio reaches 2) in assay [2] was in the range of 100 to 500 nM.

In the case of `Cc1cccc(C(C)Nc2ccc3c(c2)Sc2cccc(-c4cc(N5CCOCC5)cc(=O)[nH]4)c2S3)n1` (single isomer, unassigned) [Example 1-12-136-1, 6-(7-((1-(6-methylpyridin-2-yl)ethyl)amino)thianthren-1-yl)-4-morpholinopyridin-2(1H)-one], in assay [1], the IC50 is under 100 nM. The SER2 (concentration at which the radiation sensitivity-enhancement ratio reaches 2) in assay [2] is under 100 nM.

For `CC(Nc1ccc2c(c1)Sc1cccc(-c3cc(N4CCOCC4)cc(=O)[nH]3)c1S2)c1cc(CF)ncn1` (stereo not drawn) [Example 1-12-91, 6-(7-((1-(6-(Fluoromethyl)pyrimidin-4-yl)ethyl)amino)thianthren-1-yl)-4-morpholino pyridin-2(1H)-one], in assay [1], the IC50 is under 100 nM. The SER2 (concentration at which the radiation sensitivity-enhancement ratio reaches 2) in assay [2] lay within 100 to 500 nM.

Regarding `N#Cc1ccnc(CNc2ccc3c(c2)Sc2cccc(-c4cc(N5CCOCC5)cc(=O)[nH]4)c2O3)c1` [Example 4-4-28, 2-(((6-(4-Morpholino-6-oxo-1,6-dihydropyridin-2-yl)phenoxathiin-2-yl)amino)methyl) isonicotinonitrile], the IC50 in assay [1] is under 100 nM. For the same molecule, the SER2 (concentration at which the radiation sensitivity-enhancement ratio reaches 2) in assay [2] lay within 100 to 500 nM.

Consider `CC(CN1CCOCC1)Nc1ccc2c(c1)Sc1cccc(-c3cc(N4CCOCC4)cc(=O)[nH]3)c1S2` (single isomer, unassigned) [Example 1-13-2-2, 4-morpholino-6-(7-((1-morpholinopropan-2-yl)amino)thianthren-1-yl)pyridin-2(1H)-one], for which the IC50 in assay [1] is under 100 nM. Also, the SER2 (concentration at which the radiation sensitivity-enhancement ratio reaches 2) in assay [2] was under 100 nM.

Take `COc1cncc(CNc2ccc3c(c2)Cc2cccc(-c4cc(N5CCOCC5)cc(=O)[nH]4)c2O3)n1` [Example 2-13-9, 6-(7-(((6-Methoxypyrazin-2-yl)methyl)amino)-9H-xanthen-4-yl)-4-morpholino pyridin-2(1H)-one]: the IC50 in assay [1] was under 100 nM. In assay [2], the SER2 (concentration at which the radiation sensitivity-enhancement ratio reaches 2) fell in the range of 500 to 2000 nM.

Take `Cc1cnc(C(CCN2CCOCC2)Nc2ccc3c(c2)Sc2cccc(-c4cc(N5CCOCC5)cc(=O)[nH]4)c2S3)cn1` (stereo not drawn) [Example 1-50-1, 6-(7-((1-(5-methylpyrazin-2-yl)-3-morpholinopropyl)amino)thianthren-1-yl)-4-morpholinopyridin-2(1H)-one]: the IC50 in assay [1] was under 100 nM. In assay [2], the SER2 (concentration at which the radiation sensitivity-enhancement ratio reaches 2) was under 100 nM.

For `O=c1cc(N2CCOCC2)cc(-c2cccc3c2Oc2ccc(NCc4cc(C5CC5)ccn4)cc2C3)[nH]1` [Example 2-13-10, 6-(7-(((4-Cyclopropylpyridin-2-yl)methyl)amino)-9H-xanthen-4-yl)-4-morpholino pyridin-2(1H)-one], the IC50 in assay [1] is under 100 nM. Besides, the SER2 (concentration at which the radiation sensitivity-enhancement ratio reaches 2) in assay [2] was in the range of 100 to 500 nM.

On to `O=c1cc(N2CCOCC2)cc(-c2c(F)ccc3c2Oc2ccc(NCc4cncc(Cl)c4)cc2C3)[nH]1` [Example 2-46-2, 6-(7-(((5-Chloropyridin-3-yl)methyl)amino)-3-fluoro-9H-xanthen-4-yl)-4-morpholinopyridin-2(1H)-one], for which the IC50 in assay [1] was under 100 nM. Also, in assay [2], the SER2 (concentration at which the radiation sensitivity-enhancement ratio reaches 2) lay within 100 to 500 nM.

`COc1cnc(C(C)Nc2ccc3c(c2)Cc2cccc(-c4cc(N5CCOCC5)cc(=O)[nH]4)c2O3)cn1` (stereo not drawn) [Example 2-14-51, 6-(7-((1-(5-Methoxypyrazin-2-yl)ethyl)amino)-9H-xanthen-4-yl)-4-morpholino pyridin-2(1H)-one]: the IC50 in assay [1] was under 100 nM. The SER2 (concentration at which the radiation sensitivity-enhancement ratio reaches 2) in assay [2] lay within 100 to 500 nM.

For the molecule `Cc1cccc(CNc2ccc3c(c2)Cc2ccnc(-c4cc(N5CCOCC5)cc(=O)[nH]4)c2O3)n1` [Example 2-41-2, 6-(7-(((6-Methylpyridin-2-yl)methyl)amino)-5H-chromeno[2,3-c]pyridin-1-yl)-4-morpholino pyridin-2 (1H)-one], the IC50 in assay [1] is under 100 nM. Also, the SER2 (concentration at which the radiation sensitivity-enhancement ratio reaches 2) in assay [2] was 100 to 500 nM.

As for `Cc1ccc(CNc2ccc3c(c2)Cc2cccc(-c4cc(N5CCOCC5)cc(=O)[nH]4)c2O3)nc1` [Example 2-2-41, 6-(7-(((5-Methylpyridin-2-yl)methyl)amino)-9H-xanthen-4-yl)-4-morpholino pyridin-2(1H)-one], the IC50 in assay [1] lay within 100 to 500 nM. Also, the SER2 (concentration at which the radiation sensitivity-enhancement ratio reaches 2) in assay [2] lay within 100 to 500 nM.

Consider `COc1cccc(C(CO)Nc2ccc3c(c2)Sc2cccc(-c4cc(N5CCOCC5)cc(=O)[nH]4)c2S3)n1` (stereo not drawn) [Example 1-12-132, 6-(7-((2-Hydroxy-1-(6-methoxypyridin-2-yl)ethyl)amino)thianthren-1-yl)-4-morpholino pyridin-2(1H)-one], for which the IC50 in assay [1] is under 100 nM. Moreover, in assay [2], the SER2 (concentration at which the radiation sensitivity-enhancement ratio reaches 2) lay in the range of 100 to 500 nM.

As to `Cc1cnc(CNc2ccc3c(c2)Sc2cccc(-c4cc(N5CCOCC5)cc(=O)[nH]4)c2S3)cn1` [Example 1-12-62, 6-(7-(((5-Methylpyrazin-2-yl)methyl)amino)thianthren-1-yl)-4-morpholino pyridin-2 (1H)-one], the IC50 in assay [1] was under 100 nM. For the same molecule, in assay [2], the SER2 (concentration at which the radiation sensitivity-enhancement ratio reaches 2) was 100 to 500 nM.

In the case of `O=c1cc(N2CCOCC2)cc(-c2cccc3c2Oc2ccc(NC4CCN(CCc5ccccc5)CC4)cc2S3)[nH]1` [Example 4-10, 4-Morpholino-6-(8-((1-phenethylpiperidin-4-yl)amino)phenoxathiin-4-yl)pyridin-2(1H)-one], in assay [1], the IC50 was under 100 nM. Moreover, in assay [2], the SER2 (concentration at which the radiation sensitivity-enhancement ratio reaches 2) was in the range of 100 to 500 nM.

In the case of `COc1cnc(CNc2ccc3c(c2)Cc2cccc(-c4cc(N5CCOCC5)cc(=O)[nH]4)c2O3)cn1` [Example 2-2-36, 6-(7-(((5-Methoxypyrazin-2-yl)methyl)amino)-9H-xanthen-4-yl)-4-morpholino pyridin-2(1H)-one], the IC50 in assay [1] was 100 to 500 nM. Moreover, the SER2 (concentration at which the radiation sensitivity-enhancement ratio reaches 2) in assay [2] fell in the range of 500 to 2000 nM.
